Laboratory results reported in patent US8119569B2, “Benzoylpyrazole compounds, process for their production and herbicides containing them” (Ishihara Sangyo Kaisha, Ltd., priority 2006, dated 2012).

Columns and labels:
Assay type in all cases: in vivo
[1] = tested on: crabgrass (Digitaria sanguinalis L.); experiment: Test Example 2: soil application on the day after sowing; details: 250 g/ha, 19th to 22nd day after application
From the text: (§1) Upland field soil was put into a 1/170,000 hectare pot, and seeds of various plants (barnyardgrass (Echinochloa crus-galli L.), crabgrass (Digitaria sanguinalis L.), green foxtail (Setaria viridis L.), redroot pigweed (Amaranthus retroflexus L.), prickly sida (Sida spinosa L.), velvetleaf (Abutilon theophrasti MEDIC.), rice (oryza sativa L.), corn (Zea mays L.) and soybean (Glycine max Merr.)) were sown. On the day after sowing, wettable powders or emulsifiable concentrates of the compounds of the present invention prepared in accordance with a conventional preparation method, were weighed so that the active ingredients became the prescribed amounts, and diluted with water in an amount corresponding to 500 liter per 1 hectare, followed by soil application with a small sprayer.

corn (Zea mays L.) [2] = experiment: as above; details: 250 g/ha, 19th to 22nd day after application, crop
From the text: as §1

[3] = tested on: prickly sida (Sida spinosa L.); experiment: as above; details: 250 g/ha, 19th to 22nd day after application
From the text: as §1

[4] = tested on: velvetleaf (Abutilon theophrasti MEDIC.); experiment: as above; details: 250 g/ha, 19th to 22nd day after application
From the text: as §1

[5] = tested on: soybean (Glycine max Merr.); experiment: as above; details: 250 g/ha, 19th to 22nd day after application, crop
From the text: as §1

rice (Oryza sativa L.) [6] = experiment: as above; details: 250 g/ha, 19th to 22nd day after application, crop
From the text: as §1

[7] = tested on: barnyardgrass (Echinochloa crus-galli L.); experiment: as above; details: 250 g/ha, 19th to 22nd day after application
From the text: as §1

[8] = tested on: green foxtail (Setaria viridis L.); experiment: as above; details: 250 g/ha, 19th to 22nd day after application
From the text: as §1

[9] = tested on: redroot pigweed (Amaranthus retroflexus L.); experiment: as above; details: 250 g/ha, 19th to 22nd day after application
From the text: as §1

[10] = tested on: crabgrass (Digitaria sanguinalis L.); experiment: Test Example 1: foliar treatment, upland pot; details: 7 g/ha, 21st day after application
From the text: (§2) Upland field soil was put into a 1/170,000 hectare pot, and seeds of various plants were sown. When the respective plants reached predetermined leaf stage ((1) barnyardgrass (Echinochloa crus-galli L.): 1.0 to 3.3 leaf stage, (2) crabgrass (Digitaria sanguinalis L.): 1.2 to 3.0 leaf stage, (3) green foxtail (Setaria viridis L.): 1.5 to 3.3 leaf stage, (4) redroot pigweed (Amaranthus retroflexus L.): 0.1 to 2.0 leaf stage, (5) prickly sida (Sida spinosa L.): cotyledon stage to 2.0 leaf stage, (6) velvetleaf (Abutilon theophrasti MEDIC.): 0.1 to 2.0 leaf stage, (7) rice (Oryza sativa L.): 1.3 to 3.0 leaf stage, (8) corn (Zea mays L.): 2.5 to 3.4 leaf stage, and (9) soybean (Glycine max Merr.): primary leaf stage to 0.3 leaf stage), wettable powders or emulsifiable concentrates of the compounds of the present invention prepared in accordance with a conventional preparation method, were weighed so that the active ingredients became the prescribed amounts, and diluted with water in an amount corresponding to 500 liter per 1 hectare (containing 0.1 vol % of an agricultural spreader (“KUSARINOH”, manufactured by NIHON NOHYAKU CO., LTD.)). The spray solutions thus prepared were applied for foliar treatment by a small sprayer.

corn (Zea mays L.) [11] = experiment: Test Example 1: foliar treatment, upland pot; details: 7 g/ha, 21st day after application, crop
From the text: as §2

[12] = tested on: prickly sida (Sida spinosa L.); experiment: Test Example 1: foliar treatment, upland pot; details: 7 g/ha, 21st day after application
From the text: as §2

[13] = tested on: soybean (Glycine max Merr.); experiment: Test Example 1: foliar treatment, upland pot; details: 7 g/ha, 21st day after application, crop
From the text: as §2

rice (Oryza sativa L.) [14] = experiment: Test Example 1: foliar treatment, upland pot; details: 7 g/ha, 21st day after application, crop
From the text: as §2

[15] = tested on: barnyardgrass (Echinochloa crus-galli L.); experiment: Test Example 1: foliar treatment, upland pot; details: 7 g/ha, 21st day after application
From the text: as §2

[16] = tested on: green foxtail (Setaria viridis L.); experiment: Test Example 1: foliar treatment, upland pot; details: 7 g/ha, 21st day after application
From the text: as §2

[17] = tested on: redroot pigweed (Amaranthus retroflexus L.); experiment: Test Example 1: foliar treatment, upland pot; details: 7 g/ha, 21st day after application
From the text: as §2

[18] = tested on: Japanese bulrush (Scirpus juncoides); experiment: Test Example 4: paddy field pot, water application; details: 63 g/ha, 14th day after application
From the text: (§3) Paddy field soil was put into a 1/1,000,000 hectare pot, and seeds of barnyardgrass (Echinochloa oryzicola vasing.) and Japanese bulrush (Scirpus juncoides) were sown and lightly covered with soil. Then, pot was left to stand in a greenhouse in a state irrigated to a water depth of from 0.5 to 1 cm, and next day or two days later, tubers of Japanese ribbon waparo (Sagittaria pygmaea) were planted. Then, the irrigated water depth was maintained to be from 3 to 4 cm, and when barnyardgrass and Japanese bulrush reached 0.5 leaf stage, and Japanese ribbon waparo reached primary leaf stage, a water diluted solution of a wettable powder or an emulsifieable concentrate of the compound of the present invention prepared in accordance with a conventional preparation method, was uniformly dropwise applied by a pipette so that the amount of active ingredients would be a prescribed amount. Further, paddy field soil was put into a 1/1,000,000 pot, followed by soil puddling to an irrigated water depth of from 3 to 4 cm. Next day, rice (Oryza sativa L.) (var.: Nihonbare) of two leaf stage was transplanted in a transplantation depth of 3 cm. On the 4th day after transplantation, the compound of the present invention was applied in the same manner as described above.

[19] = tested on: Japanese ribbon waparo (Sagittaria pygmaea); experiment: Test Example 4: paddy field pot, water application; details: 63 g/ha, 14th day after application
From the text: as §3

[20] = tested on: barnyardgrass (Echinochloa oryzicola vasing.); experiment: Test Example 4: paddy field pot, water application; details: 63 g/ha, 14th day after application
From the text: as §3

[21] = tested on: velvetleaf (Abutilon theophrasti MEDIC.); experiment: Test Example 1: foliar treatment, upland pot; details: 7 g/ha, 21st day after application
From the text: Upland field soil was put into a 1/170,000 hectare pot, and seeds of various plants were sown. […] The spray solutions thus prepared were applied for foliar treatment by a small sprayer.

[22] = tested on: rice (Oryza sativa L.) (var.: Nihonbare); experiment: Test Example 4: paddy field pot, water application, transplanted rice; details: 63 g/ha, 21st day after application, crop
From the text: as §3

Row | SMILES | Growth inhibition rate (%) Crabgrass [1] [%] | Growth inhibition rate (%) Corn (corn (Zea mays L.) [2]) [%] | Growth inhibition rate (%) Prickly sida [3] [%] | Growth inhibition rate (%) Velvetleaf [4] [%] | Growth inhibition rate (%) Soybean [5] [%] | Growth inhibition rate (%) Rice (rice (Oryza sativa L.) [6]) [%] | Growth inhibition rate (%) Barnyardgrass [7] [%] | Growth inhibition rate (%) Green foxtail [8] [%] | Growth inhibition rate (%) Redroot pigweed [9] [%] | Growth inhibition rate (%) Crabgrass [10] [%] | Growth inhibition rate (%) Corn (corn (Zea mays L.) [11]) [%] | Growth inhibition rate (%) Soybean [13] [%] | Growth inhibition rate (%) Rice (rice (Oryza sativa L.) [14]) [%] | Growth inhibition rate (%) Barnyardgrass [15] [%] | Growth inhibition rate (%) Green foxtail [16] [%] | Growth inhibition rate (%) Redroot pigweed [17] [%] | Growth inhibition rate (%) Japanese bulrush [18] [%] | Growth inhibition rate (%) Barnyardgrass [20] [%] | Growth inhibition rate (%) Velvetleaf [21] [%] | Growth inhibition rate (%) Rice [22] [%] | also measured
1 | COCCOc1c(S(C)(=O)=O)ccc(C(=O)c2cnn(C)c2OC(C)OC(=O)OC(C)C)c1C (racemic) [compound 4] | 100 | 0 | 90 | 70 | 0 | 90 | 100 | 95 | 95 | 90 | 0 | 90 | 30 | 100 | 100 | 90 | 95 | 100 | 98 | 50 | Growth inhibition rate (%) Prickly sida [12]: 40%; Growth inhibition rate (%) Japanese ribbon waparo [19]: 90%
2 | CCOC(=O)OC(C)Oc1c(C(=O)c2ccc(S(C)(=O)=O)c(OCCOC)c2C)c(C)nn1C (racemic) [compound 11] | 100 | 0 | 40 | 70 | 20 | 100 | 100 | 100 | 100 | 90 | 0 | 70 | 80 | 90 | 90 | 80 | 100 | 98 | 60 | 60 | Growth inhibition rate (%) Prickly sida [12]: 10%; Growth inhibition rate (%) Japanese ribbon waparo [19]: 60%
3 | CCOC(=O)OC(C)Oc1c(C(=O)c2ccc(S(C)(=O)=O)c(OCCOC)c2C)cnn1CC (racemic) [compound 3] | 100 | 0 | 50 | 80 | 20 | 100 | 100 | 100 | 100 | 95 | 0 | 70 | 80 | 95 | 100 | 90 | 95 | 100 | 90 | 40 | Growth inhibition rate (%) Prickly sida [12]: 10%; Growth inhibition rate (%) Japanese ribbon waparo [19]: 90%
4 | CCOC(=O)OC(C)Oc1c(C(=O)c2ccc(S(C)(=O)=O)c(C(=O)OC)c2C)cnn1C (racemic) [compound 21] | 100 | 0 | 60 | 90 | 50 | 100 | 100 | 100 | 100 | 90 | 0 | 95 | 80 | 90 | 80 | 90 | 70 | 100 | 85 | 10 | Growth inhibition rate (%) Japanese ribbon waparo [19]: 70%
5 | CCOC(=O)OC(C)Oc1c(C(=O)c2ccc(S(C)(=O)=O)c(COCC(F)(F)F)c2C)cnn1C (racemic) [compound 15] | 100 | 0 | 70 | 100 | 0 | 100 | 100 | 100 | 100 | 95 | 10 | 75 | 40 | 70 | 75 | 90 | 60 | 100 | 98 | 10 | Growth inhibition rate (%) Prickly sida [12]: 0%
6 | CCOC(=O)OC(C)Oc1c(C(=O)c2ccc(S(C)(=O)=O)c(OCCOC)c2C)cnn1C(C)C (racemic) [compound 18] | 100 | 0 | 70 | 100 | – | 100 | 100 | 100 | 100 | 95 | 0 | 80 | 70 | 95 | 90 | 95 | 90 | 100 | 95 | 0 | Growth inhibition rate (%) Prickly sida [12]: 30%; Growth inhibition rate (%) Japanese ribbon waparo [19]: 90%
